This is an account of results in article PMC9537276, “A pathway for chitin oxidation in marine bacteria” (Nature Communications, 2022).

In test [1] the target is T1, OngC (Pseudoalteromonas prydzensis, UniProt Z9U939ZVG8).
T1 construct: full length, C-terminal His tag, pET22b, E. coli BL21 (DE3)
T1 sequence (Z9U939ZVG8 1-415): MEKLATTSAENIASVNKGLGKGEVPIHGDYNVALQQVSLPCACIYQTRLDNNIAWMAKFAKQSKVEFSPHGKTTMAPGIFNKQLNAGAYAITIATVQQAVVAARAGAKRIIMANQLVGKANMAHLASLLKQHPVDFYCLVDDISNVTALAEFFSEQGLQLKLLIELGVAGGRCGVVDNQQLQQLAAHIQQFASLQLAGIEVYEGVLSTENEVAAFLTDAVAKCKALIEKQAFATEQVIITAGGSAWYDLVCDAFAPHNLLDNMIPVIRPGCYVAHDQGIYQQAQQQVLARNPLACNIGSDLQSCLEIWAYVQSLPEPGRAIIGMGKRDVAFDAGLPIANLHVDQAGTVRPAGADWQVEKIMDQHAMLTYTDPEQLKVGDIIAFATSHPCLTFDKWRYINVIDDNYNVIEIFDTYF
The test can be described thus: ammonia release assay kit; Q-TOF-MS. The following applies: 10 mM substrate (made in situ by OngB from GlcNAc1A), 10 mM Bis-Tris-HCl pH 7.5, 25 °C. It is filed as biochemical.

For test [2], the target named is T2, OngB (Pseudoalteromonas prydzensis, UniProt A0A7V1CY72).
T2 construct: gene ENH88_07920; full length, C-terminal His tag, pET22b, E. coli BL21 (DE3)
T2 sequence (A0A7V1CY72 1-489): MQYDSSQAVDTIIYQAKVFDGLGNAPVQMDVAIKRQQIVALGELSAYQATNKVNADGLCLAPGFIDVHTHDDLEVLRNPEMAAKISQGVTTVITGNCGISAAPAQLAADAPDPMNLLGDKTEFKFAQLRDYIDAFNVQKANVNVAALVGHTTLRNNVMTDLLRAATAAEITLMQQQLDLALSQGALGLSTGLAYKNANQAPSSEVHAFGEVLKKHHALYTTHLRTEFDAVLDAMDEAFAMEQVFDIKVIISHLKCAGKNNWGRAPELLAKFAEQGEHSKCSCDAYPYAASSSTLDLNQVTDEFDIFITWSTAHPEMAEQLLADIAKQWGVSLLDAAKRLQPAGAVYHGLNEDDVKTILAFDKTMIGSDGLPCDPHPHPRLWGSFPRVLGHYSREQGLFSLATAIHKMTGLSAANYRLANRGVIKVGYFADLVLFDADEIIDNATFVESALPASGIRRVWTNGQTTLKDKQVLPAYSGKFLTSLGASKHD
The experiment in a line: acetate release assay kit; Q-TOF-MS. The conditions noted are these: 25 mM substrate, 10 mM Bis-Tris-HCl pH 7.5, 25 °C, 30 min. It is filed as biochemical.

Take `N[C@@H](C(=O)O)[C@@H](O)[C@H](O)[C@H](O)CO` [GlcN1A, 2-(amino)-2-deoxy-D-gluconic acid]: the “ammonia release assay kit; Q-TOF-MS” value in test [1] was “OngC can deaminate GlcN1A to produce ammonia and KDG”.
Regarding `CC(=O)N[C@@H](C(=O)O)[C@@H](O)[C@H](O)[C@H](O)CO` [GlcNAc1A, 2-(acetylamino)−2-deoxy-D-gluconic acid], the “acetate release assay kit; Q-TOF-MS” value in test [2] is “Only OngB was shown to act on GlcNAc1A to produce acetate”.
